Experimental findings from the NIST ThermoML archive (doi:10.1021/je030141r) are described below.

The conditions of data set [1]: Liquid; for mass density: 101.33 kPa.
Data set [2] can be described thus: refractive index (Na D-line) (dimensionless). The following applies: 101.33 kPa, Liquid, Standard Abbe refractometry.

± gives the expanded uncertainty stated by the source.

For `CC(Cl)(Cl)Cl` [1,1,1-trichloroethane], in data set [1] (298.15 K), the mass density amounted to 1329.9 ± 4.1 kg/m3. The “vapor or sublimation pressure” value in data set [1] (345.65 K) is 95.8 ± 9.6 kPa. For the same molecule, the refractive index in data set [2] (298.15 K) is 1.4359 ± 0.0012.

In the case of `ClC(Cl)C(Cl)Cl` [1,1,2,2-tetrachloroethane], the mass density in data set [1] (298.15 K) is recorded as 1586.7 ± 4.9 kg/m3. For the same molecule, the “vapor or sublimation pressure” value in data set [1] (417.35 K) and in data set [1] (417.45 K) was 95.8 ± 9.7 kPa throughout. For the same molecule, the refractive index in data set [2] (298.15 K) is given as 1.4914 ± 0.0012.

As for `ClCCCl` [1,2-dichloroethane], the mass density in data set [1] (298.15 K) is reported as 1246.4 ± 3.8 kg/m3. Further, the “vapor or sublimation pressure” value in data set [1] (355.25 K) stood at 95.8 ± 9.6 kPa. In data set [2] (298.15 K), the refractive index is 1.4421 ± 0.0012.

As to `CCC(C)CO` (centres undefined) [2-methyl-1-butanol], the mass density in data set [1] (298.15 K) stood at 815 ± 2.5 kg/m3. Further, the “vapor or sublimation pressure” value in data set [1] (400.35 K) was 95.8 ± 9.7 kPa. Also, the refractive index in data set [2] (298.15 K) is 1.4084 ± 0.0008.

Turning to `CC(C)CO` [2-methyl-1-propanol], in data set [1] (298.15 K), the mass density amounted to 798 ± 2 kg/m3. In data set [1] (379.65 K), the “vapor or sublimation pressure” value is reported as 95.8 ± 19 kPa. Moreover, the refractive index in data set [2] (298.15 K) turned out to be 1.3939 ± 0.0012.

`CC(C)(C)O` [2-methylpropan-2-ol]: the mass density in data set [1] (298.15 K) is listed as 781.2 ± 2.3 kg/m3. Moreover, in data set [1] (354.15 K), the “vapor or sublimation pressure” value came out at 95.8 ± 9.6 kPa. Moreover, the refractive index in data set [2] (298.15 K) is given as 1.385 ± 0.001.

Turning to `CCCCO` [butan-1-ol], in data set [1] (298.15 K), the mass density amounted to 805.8 ± 2.4 kg/m3. Moreover, the “vapor or sublimation pressure” value in data set [1] (389.45 K) turned out to be 95.8 ± 9.6 kPa. Further, in data set [2] (298.15 K), the refractive index was 1.3974 ± 0.0012.

On to `CCC(C)O` (centres undefined) [butan-2-ol], for which the mass density in data set [1] (298.15 K) amounted to 802.4 ± 2.4 kg/m3. Also, the “vapor or sublimation pressure” value in data set [1] (371.35 K) is reported as 95.8 ± 9.6 kPa. The refractive index in data set [2] (298.15 K) is listed as 1.3953 ± 0.0012.

In the case of `CCC(C)=O` [butanone], the mass density in data set [1] (298.15 K) turned out to be 799.7 ± 2.4 kg/m3. For the same molecule, in data set [1] (350.75 K), the “vapor or sublimation pressure” value was determined as 94.6 ± 19 kPa. In data set [2] (298.15 K), the refractive index is 1.3769 ± 0.0012.

For the molecule `C1CCCCC1` [cyclohexane], the mass density in data set [1] (298.15 K) was 773.9 ± 2.3 kg/m3. The “vapor or sublimation pressure” value in data set [1] (351.75 K) is given as 94.6 ± 9.5 kPa. The refractive index in data set [2] (298.15 K) turned out to be 1.4235 ± 0.0012.

As for `CCCCCCC` [heptane], the mass density in data set [1] (298.15 K) came to 679.5 ± 2 kg/m3. The “vapor or sublimation pressure” value in data set [1] (369.35 K) stood at 94.6 ± 9.5 kPa. For the same molecule, the refractive index in data set [2] (298.15 K) was determined as 1.3851 ± 0.0012.

For the molecule `ClC(Cl)=C(Cl)Cl` [tetrachloroethene], the mass density in data set [1] (298.15 K) was found to be 1614.3 ± 5 kg/m3. Moreover, the “vapor or sublimation pressure” value in data set [1] (392.25 K) stood at 95.8 ± 9.6 kPa. In addition, the refractive index in data set [2] (298.15 K) is reported as 1.5032 ± 0.0012.

Regarding `C1CCOC1` [tetrahydrofuran], the mass density in data set [1] (293.15 K) is listed as 889.2 ± 2.7 kg/m3. The “vapor or sublimation pressure” value was found to be 94.6 ± 9.5 kPa in data set [1] (337.15 K) and 95.8 ± 9.6 kPa in data set [1] (337.55 K). In addition, the refractive index in data set [2] (293.15 K) came to 1.4072 ± 0.0012.

Turning to `ClC=C(Cl)Cl` [trichloroethene], the mass density in data set [1] (303.15 K) worked out at 1451.4 ± 4.5 kg/m3. The “vapor or sublimation pressure” value in data set [1] (357.95 K) turned out to be 95.8 ± 9.6 kPa. Also, the refractive index in data set [2] (298.15 K) amounted to 1.475 ± 0.001.

Usually mass density stands for mass per unit of volume. By vapor or sublimation pressure is commonly meant the pressure of vapour in equilibrium with the condensed phase. The refractive index is the speed of light in vacuum divided by its phase velocity in the sample.
